Counter-ions that a name gives are not always drawn.
Tests used:
[1] = target: T1, recombinant human Meningioma Expressed Antigen 5 (MGEA5), also referred to as O-GlcNAcase (OGA) (Homo sapiens, UniProt O60502); test: OGA biochemical assay (inhibition of FM-GlcNAc hydrolysis, fluorescence); details: for Emax: read-out: Enzymatic Emax (%); for IC50: read-out: Enzymatic hOGA, pIC50 (converted)
T1 construct: Full length OGA enzyme was purchased at OriGene (cat #TP322411); purchased OriGene TP322411
T1 sequence (O60502 1-916): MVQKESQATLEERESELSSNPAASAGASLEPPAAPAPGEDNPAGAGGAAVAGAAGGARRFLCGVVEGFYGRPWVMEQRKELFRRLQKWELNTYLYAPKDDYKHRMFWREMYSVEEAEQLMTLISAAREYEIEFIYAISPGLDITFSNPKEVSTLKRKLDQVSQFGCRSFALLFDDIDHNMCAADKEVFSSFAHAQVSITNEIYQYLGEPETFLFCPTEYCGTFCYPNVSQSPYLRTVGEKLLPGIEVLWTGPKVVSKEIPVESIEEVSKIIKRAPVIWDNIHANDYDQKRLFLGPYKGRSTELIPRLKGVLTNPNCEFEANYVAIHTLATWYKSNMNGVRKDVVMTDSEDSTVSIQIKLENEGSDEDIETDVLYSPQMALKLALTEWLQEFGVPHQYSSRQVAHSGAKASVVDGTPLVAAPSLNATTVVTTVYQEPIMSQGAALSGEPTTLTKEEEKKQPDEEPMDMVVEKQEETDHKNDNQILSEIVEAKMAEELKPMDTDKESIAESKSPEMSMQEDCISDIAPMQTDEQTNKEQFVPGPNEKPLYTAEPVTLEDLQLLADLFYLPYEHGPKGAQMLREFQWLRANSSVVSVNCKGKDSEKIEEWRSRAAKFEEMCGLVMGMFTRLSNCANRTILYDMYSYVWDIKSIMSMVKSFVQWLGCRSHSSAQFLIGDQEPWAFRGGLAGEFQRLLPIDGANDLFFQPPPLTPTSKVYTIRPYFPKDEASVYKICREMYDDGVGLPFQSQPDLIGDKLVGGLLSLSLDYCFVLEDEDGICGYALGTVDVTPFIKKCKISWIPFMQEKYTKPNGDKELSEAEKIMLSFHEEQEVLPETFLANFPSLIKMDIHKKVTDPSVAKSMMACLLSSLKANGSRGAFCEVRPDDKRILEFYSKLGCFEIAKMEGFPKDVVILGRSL
Summary of the method: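 Full-length OGA at 2 nM was pre-incubated 60 min at room temperature with compound, then FM-GlcNAc at 100 uM final was added in citrate/phosphate buffer pH 7.2 with 0.005% Tween-20. After 6 h at room temperature, carbonate pH 11.0 stopped the reaction. Fluorescence read at 485/538 nm; IC50 and Hill coefficient from curve fit against no-inhibitor and saturating-standard controls.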

OGA = target: T2, OGA (Homo sapiens, UniProt O60502); test: OGA cellular assay (ICC detection of O-GlcNAcylated proteins in HEK293 cells inducible for P301L mutant human Tau); assay type: cell-based; details: 6 hours incubation; for Emax: HEK293, HEK293 cells inducible for P301L mutant human Tau, maximum = Thiamet G 200 uM; for EC50: HEK293 cells inducible for P301L mutant human Tau, read-out: Cellular hOGA, pEC50 (converted)
T2 construct: HEK293 cells inducible for P301L mutant human Tau (isoform 2N4R) were established at Janssen; endogenous in cells; host or cells: HEK293 cells inducible for P301L mutant human Tau (2N4R)
T2 sequence (O60502 1-916): T1 sequence (O60502 1-916)
Summary of the method: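 HEK293 cells with inducible P301L 2N4R Tau, seeded in low-glucose medium, were exposed to compounds for 6 hours (0.2% DMSO), then PFA-fixed and stained with CTD110.6. Imaging intensity at 488 nm measured O-GlcNAcylation, with Hoechst nuclei counts for toxicity. IC50s came from non-linear regression, with Thiamet G at 200 uM as maximum inhibition.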

Structure (SMILES) | Emax [1] [%] | IC50 [1] [nM] | Emax (OGA) [%] | EC50 (OGA) [nM] | melting point [°C]
Cc1ncc(OC2CCN(C(C)c3ccc4c(c3)OCO4)CC2)cn1.Cl (centres unmarked) [Compound 30] | 100 | 794 | 15 | > 1000 | 213.2
Cc1ccc(OC2CCN(C(C)c3ccc4c(c3)OCO4)CC2)cn1.Cl (centres unmarked) [Compound 31] | 96 | 794 | 21 | > 1000 | 278.4
Cc1cc(OC2CCN(C(C)c3ccc4c(n3)OCCO4)CC2)cc(C2CC2)n1 (centres unmarked) (as salt: HCl) [Compound 125] |  |  |  |  | 171.4
CCc1cc(OC2CCN(C(C)c3ccc4c(n3)OCCO4)CC2)cc(C)n1 (centres unmarked) (as salt: HCl) [Compound 129] |  |  |  |  | 66
Cc1cc(OC2CCN(C(C)c3ccc4c(n3)OCCO4)CC2)cc(C(C)C)n1 (centres unmarked) (as salt: HCl) [Compound 130] |  |  |  |  | 186.4
Cc1cc(OC2CCN(C(C)c3nc4c(cc3F)OCCO4)CC2)ncc1C#N (centres unmarked) [Compound 113] | 96 | 15.8 | 83 | 126 | 161.44
Cc1cc(OC2CCN([C@H](C)c3nc4c(cc3F)OCCO4)CC2)cc(C)n1 (single isomer, unassigned) (as salt: HCl) [Compound 148] |  |  |  |  | 255.75
Cc1cc(OC2CCN(C(C)c3ccc4c(n3)OCCO4)CC2)cc(OC(C)C)n1 (centres unmarked) (as salt: HCl) [Compound 124] |  |  |  |  | 196.6
Cc1ncc(COC2CCN(C(C)c3nc4c(cc3F)OCCO4)CC2)cn1 (centres unmarked) [Compound 135] | 97 | 31.6 | 97 | 79.4 | 132.9
Cc1cc(OC2(CF)CCN(C(C)c3ccc4c(n3)OCCO4)CC2)cc(C)n1 (centres unmarked) (as salt: HCl) [Compound 132] |  |  |  |  | 189.8
CC(c1nc2c(cc1F)OCCO2)N1CCC(Oc2ccc(C(=O)N(C(C)C)C(C)C)nc2)CC1 (centres unmarked) (as salt: HCl) [Compound 123] |  |  |  |  | 139.7
Cc1cc(CC2CCN(C(C)c3ccc4c(n3)OCCO4)CC2)cc(C)n1 (centres unmarked) [Compound 140] | 98 | 398 | 64 | 251 | 144.6
Cc1ncc(COC2CCN(C(C)c3nc4c(cc3F)OCCO4)CC2)cn1 (single isomer, unassigned) [Compound 136] | 95 | 12.6 | 81 | 50.1 | 64.4
CNC(=O)c1ccc(OC2CCN(C(C)c3ccc4c(n3)OCCO4)CC2)cn1 (centres unmarked) [Compound 122] | 100 | 79.4 | 48 | 794 | 94.5
Cc1cc(OC2CCN([C@@H](C)c3nc4c(cc3F)CCO4)CC2)cc(C)n1 (single isomer, unassigned) (as salt: HCl) [Compound 145] |  |  |  |  | 103.27
Cc1ccc(OC2CCN(C(C)c3ccc4c(n3)OCCO4)CC2)cn1 (centres unmarked) (as salt: HCl) [Compound 41] |  |  |  |  | 226.7
CC(c1ccc2c(n1)OCCO2)N1CCC(Oc2ccc(F)cn2)CC1 (centres unmarked) [Compound 115] | 96 | 200 | 25 | > 1000 | 
Cc1cc(NC2CCN(C(C)c3ccc4c(n3)OCCO4)CC2)cc(C)n1 (centres unmarked) [Compound 78] | 99 | 100 | 55 | 813 | 
Cc1ncccc1OC1CCN(C(C)c2ccc3c(n2)OCCO3)CC1 (centres unmarked) [Compound 116] | 96 | 126 | 42 | > 1000 | 
CC(c1ccc2c(n1)OCCO2)N1CCC(Oc2ncc(F)cc2F)CC1 (centres unmarked) [Compound 52] | 96 | 501 | 16 | > 1000 | 

Structure (SMILES) | Emax [1] [%] | IC50 [1] [nM] | Emax (OGA) [%] | EC50 (OGA) [nM] | melting point [°C]
CC(c1nc2c(cc1F)OCCO2)N1CCC(Oc2ccc(C#N)nn2)CC1 (centres unmarked) [Compound 92] | 97 | 25.1 | 66 | 126 | 
Cc1cc(COC2CCN(C(C)c3ccc4c(n3)OCCO4)CC2)cc(C)n1 (centres unmarked) [Compound 89] | 97 | 126 | 63 | ~501 | 
Cc1cc(C#N)cnc1OC1CCN(C(C)c2ccc3c(n2)OCCO3)CC1 (centres unmarked) [Compound 97] | 94 | 398 | 20 | > 1000 | 
Cc1cnc(OC2CCN(C(C)c3nc4c(cc3F)OCCO4)CC2)cc1C (centres unmarked) [Compound 157] | 94 | 20 | 80 | 158 | 
Cc1cc(OC2CCN(C(C)c3cnc4c(c3)OCCO4)CC2)nc(C)n1 (centres unmarked) [Compound 13] | 96 | 501 | 8 | > 1000 | 
CC(c1ccc2c(n1)OCCO2)N1CCC(COc2ccc(C(F)(F)F)cn2)CC1 (centres unmarked) [Compound 43] | 96 | 501 | 25 | > 1000 | 
Cc1ncc(OC2CCN(C(C)c3nc4c(cc3F)OCCO4)CC2)nc1C (centres unmarked) [Compound 110] | 101 | 7.94 | 79 | 100 | 
Cc1cc(OC2CCN(C(C)c3ccc4c(n3)OCCO4)CC2)cc(C(F)(F)F)n1 (centres unmarked) [Compound 17] | 100 | 39.8 | 61 | 316 | 
CC(c1nc2c(cc1F)OCCO2)N1CCC(Oc2ccc(C(=O)N(C(C)C)C(C)C)nc2)CC1 (centres unmarked) [Compound 123] | 93 | 12.6 | 59 | 100 | 
CC(c1ccc2c(n1)OCCO2)N1CCC(C)(Oc2ccc(F)cc2)CC1 (centres unmarked) [Compound 131] | 70 | 3980 | -4 | > 1000 | 
Cc1cnc(OC2CCN(C(C)c3nc4c(cc3F)OCCO4)CC2)c(C)n1 (centres unmarked) [Compound 84] | 101 | 15.8 | 73 | 316 | 
CC(c1ccc2c(n1)OCCO2)N1CCC(Oc2cnc(Cl)nc2)CC1 (centres unmarked) [Compound 67] | 102 | 126 | 60 | 631 | 
COc1cc(OC2CCN(C(C)c3nc4c(cc3F)OCCO4)CC2)cc(C)n1 (centres unmarked) [Compound 15] | 102 | 5.01 | 72 | 50.1 | 
CC(c1ccc2c(n1)OCCO2)N1CCC(Oc2ncccc2C#N)CC1 (centres unmarked) [Compound 50] | 95 | 1000 | 9 | > 1000 | 
CC(c1nc2c(cc1F)OCCO2)N1CCC(Oc2ccc(C3CC3)nc2)CC1 (centres unmarked) [Compound 164] | 96 | 7.94 | 72 | 67.6 | 
C[C@@H](c1ccc2c(n1)OCCO2)N1CCC(Oc2ccc(C#N)nn2)CC1 [Compound 107] | 96 | 158 | 51 | 631 | 
Cc1cc(OC2CCN(C(C)c3ccc4c(c3)OCCO4)CC2)cc(C)n1 (centres unmarked) [Compound 25] | 96 | 501 | 56 | 631 | 
COc1cc(OC2CCN(C(C)c3ccc4sc(C)nc4n3)CC2)cc(C)n1 (centres unmarked) [Compound 16] | 99 | 25.1 | 91 | 126 | 
COc1cc(OC2CCN([C@H](C)c3nc4nc(C)sc4cc3F)CC2)cc(C)n1 (single isomer, unassigned) [Compound 80] | 96 | 631 | 7 | > 1000 | 
Cc1cc(C)nc(OC2CCN(C(C)c3ccc4c(n3)OCCO4)CC2)c1 (centres unmarked) [Compound 71] | 100 | 126 | 35 | > 1000 | 

From patent publication US20210122763A1, “OGA INHIBITOR COMPOUNDS” (Janssen Pharmaceutica NV, priority 2018, published 2021)
